Source: patent US9056859B2, “Inhibitors of the renal outer medullary potassium channel” (Merck Sharp & Dohme Corp., priority 2010, dated 2015)

Biological target: Kir1.1 (ROMK1) (Homo sapiens (Human), UniProt P48048)
Experiment: ROMK electrophysiology assay (IonWorks Quattro whole cell voltage clamp)
Type: cell-based
Conditions: not given

Chain of Kir1.1 (ROMK1) (P48048 whole entry): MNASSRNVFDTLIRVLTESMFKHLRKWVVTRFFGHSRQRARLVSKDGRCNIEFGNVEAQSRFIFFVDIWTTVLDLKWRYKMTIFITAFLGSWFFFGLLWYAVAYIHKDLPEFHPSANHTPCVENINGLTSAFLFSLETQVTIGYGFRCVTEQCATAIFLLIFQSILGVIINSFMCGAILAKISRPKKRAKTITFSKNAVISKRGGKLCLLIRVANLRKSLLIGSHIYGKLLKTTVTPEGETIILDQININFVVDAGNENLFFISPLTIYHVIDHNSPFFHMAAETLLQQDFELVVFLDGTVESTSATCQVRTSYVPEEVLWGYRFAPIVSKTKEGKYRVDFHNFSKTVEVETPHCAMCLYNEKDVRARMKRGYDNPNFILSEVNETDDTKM

| Compound | IC50 [µM] |
| --- | --- |
| O=C1OCc2cc(CCN3CCCN(C(=O)Cc4ccc(-n5cnnn5)cc4)CC3)ccc21 [Example 11] | 0.012 |
| COc1cc(CC(=O)N2CCN(CCc3ccc4c(c3C)COC4=O)CC2)c(F)cc1C#N [Example 48] | 0.035 |

Same assay, conditions: Chinese hamster ovary cells stably expressing Kir1.1; block during voltage step to 0 mV; 6 min compound incubation; read-out: ROMK Electrophysiology Assay IC50

| Compound | IC50 [µM] |
| --- | --- |
| Cc1c(CCN2CCN(C(=O)C3CCc4nc(-n5cnnn5)ccc43)CC2)ccc2c1COC2=O (single isomer, unassigned) [Example 96] | 0.061 |
| C[C@H]1Cc2cc(CCN3CCN(C(=O)C4CCc5nc(-n6cnnn6)ccc54)CC3)ccc2C(=O)O1 (single isomer, unassigned) [Example 177] | 0.1 |
| N#Cc1ccc(CCN2CCN(C(=O)Cc3ccc(-n4cnnn4)cc3)CC2)cc1F [Example 39] | 0.063 |
| Cc1c(CCN2CCN(C(=O)Cc3cc(F)c(C#N)cc3F)CC2)ccc2c1COC2=O [Example 59] | 0.094 |
| Cc1c(CCN2CCN(C(=O)Cc3ccc(-n4cnnn4)cc3)CC2)ccc(F)c1C#N [Example 122] | 0.037 |
| Cc1c([C@@H](O)CN2CCN(C(=O)Cc3ccc(-n4cnnn4)nc3)C3CC32)ccc2c1COC2=O (stereo partly drawn) [Example 217, 5-[(1R)-1-hydroxy-2-(5-{[6-(1H-tetrazol-1-yl)pyridin-3-yl]acetyl}-2,5-diazabicyclo[4.1.0]hept-2-yl)ethyl]-4-methyl-2-benzofuran-1(3H)-one] | 0.056 |
